Where two headings read alike, the source gives them in different places.
Target: T1, rat PTP1 (Rattus norvegicus, UniProt P20417)
T1 construct: a C-terminal truncation of rat PTP1 (amino acid residues 1-322); GST (N, cleaved yes); made in house; host or cells: E. coli strain TG-1 (pGEX-2T)
T1 sequence (P20417 1-322): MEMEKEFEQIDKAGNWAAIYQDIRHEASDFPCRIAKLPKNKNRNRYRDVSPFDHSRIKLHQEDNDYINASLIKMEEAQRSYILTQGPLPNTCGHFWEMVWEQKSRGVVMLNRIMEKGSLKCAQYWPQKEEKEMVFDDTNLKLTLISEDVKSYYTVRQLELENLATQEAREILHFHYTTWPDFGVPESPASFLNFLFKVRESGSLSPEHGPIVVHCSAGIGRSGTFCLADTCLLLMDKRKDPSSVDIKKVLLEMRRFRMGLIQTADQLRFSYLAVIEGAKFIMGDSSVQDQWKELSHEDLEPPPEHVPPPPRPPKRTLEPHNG
Assay: PTP1 assay, pNPP hydrolysis (rate of change in A405)
Type: biochemical
Conditions: for Ki: calculated from IC50-values obtained from a dose-response curve using the inhibition assay
Text: PTP1 Assays: A construct, which consisted of a C-terminal truncation of rat PTP1 (amino acid residues 1-322) (cloned from a rat brain library) with an N-terminal glutathione S-transferase (GST) tag and an adjacent thrombin cleavage site, was inserted into vector plasmid pGEX-2T and transformed into E. coli strain TG-1 under the control of a lac promoter (K. L. Guan and J. E. Dixon (1991) Eukaryotic proteins expressed in Escherichia coli: an improved thrombin cleavage and purification procedure of fusion proteins with glutathione S-transferase. Analyt. Biochem. 192: 262-267). The GST-fusion protein was purified on a glutathione agarose affinity column, the GST tag was cleaved with thrombin, and the active enzyme was recovered for use in an assay to identify PTP inhibitors.
PTP1 activity is measured using either p-nitrophenol phosphate (pNPP) or a triphosphopeptide (that matches residues 1142 through 1153 of the β-subunit and the insulin receptor) as substrate in a 96-well microtiter plate format. An assay pH of 7.2 is used for standard assays (measured 405=9800 at pH 7.2).
Standard assays are conducted at room temperature in a total volume of 0.2 ml that contains Hepes buffer (50 mM, pH 7.2), NaCl (50 mM), EDTA (1 mM), DTT (1 mM), bovine serum albumin (1 mg/ml), pNPP (1 mM) and PTP1 (35 ng/ml). Compounds (2 μl of 10 mM solutions) are pipetted into wells of microtiter plates followed by 198 μl of premixed reaction mix (with PTP1 and pNPP added immediately before use). The rate of change in A405 is recorded for 60 min. Two wells on each plate contain DMSO controls and two wells contain sodium orthovanadate (1 mM) which inhibits PTP1-catalyzed hydrolysis of pNPP completely. Data are expressed as percent inhibition relative to the average of the DMSO controls measured on the same microtiter plate.

[1] = Conc 1 uM, pNPP hydrolysis, Table 2, read-out: PTP1 Inhib PTP1N. % Inhib
[2] = Conc 10 uM, pNPP hydrolysis, Table 2, read-out: PTP1 Inhib PTP1N. % Inhib
[3] = Conc 100 uM, pNPP hydrolysis, Table 2, read-out: PTP1 Inhib PTP1N. % Inhib
[4] = Conc 1 uM, pNPP hydrolysis, Table 1, read-out: PTP1 Inhib % Inhib
[5] = Conc 10 uM, pNPP hydrolysis, Table 1, read-out: PTP1 Inhib % Inhib
[6] = Conc 100 uM, pNPP hydrolysis, Table 1, read-out: PTP1 Inhib % Inhib
[7] = inhibition of pNPP-hydrolysis, compound concentration 1 μM, read-out: % Inhibition
[8] = inhibition of pNPP-hydrolysis, compound concentration 10 μM, read-out: % Inhibition
[9] = inhibition of pNPP-hydrolysis, compound concentration 100 μM, read-out: % Inhibition

| Compound | inhibition at 1 µM [1] [%] | inhibition at 10 µM [2] [%] | inhibition at 100 µM [3] [%] | inhibition at 1 µM [4] [%] | inhibition at 10 µM [5] [%] | inhibition at 100 µM [6] [%] | further results |
| --- | --- | --- | --- | --- | --- | --- | --- |
| CCCCCNC(=O)C(Cc1ccc(OC(COO)COO)cc1)NC(=O)C(Cc1ccc(OCc2ccccc2)cc1)N(C)C(=O)OC(C)(C)C (centres unmarked) | 0 | 0 | 32 | – | – | – | – |
| CCCCCNC(=O)C(Cc1ccc(OC(COO)COO)cc1)NC(=O)NCC(=O)O (centres unmarked) | – | – | – | 4 | 23 | 75 | – |
| CCCCCNC(=O)C(Cc1ccc(OC(COO)COO)cc1)NC(=O)N(CC(=O)O)Cc1ccccc1 (centres unmarked) | – | – | – | 3 | 25 | 75 | – |
| [Na+].[Na+].[Na+].[O]=[V]([O-])([O-])[O-] [sodium orthovanadate, reference compound] | – | – | – | – | – | – | inhibits PTP1-catalyzed hydrolysis of pNPP (1 mM, control wells on each plate): completely |
| CCCCCNC(=O)C(Cc1ccc(OC(COO)COO)cc1)NC(=O)C(Cc1ccc(OC(C)(C)C)cc1)NC(=O)CCC(=O)O (centres unmarked) | 37 | 83 | 97 | – | – | – | – |
| O=C(O)CCC(=O)NC(Cc1ccc(C(=O)c2ccccc2)cc1)C(=O)NCCc1ccc(OC(COO)COO)cc1 (centres unmarked) | 1 | 13 | 60 | – | – | – | – |
| CCCCCNC(=O)C(Cc1ccc(OC(COO)COO)cc1)NC(=O)NCCC(=O)O (centres unmarked) | – | – | – | 2 | 21 | 72 | PTP1 Inhib % Inhib (Conc 1 uM, pNPP hydrolysis, Table 1): 3%; PTP1 Inhib % Inhib (Conc 100 uM, pNPP hydrolysis, Table 1): 74% |
| CCCCCNC(=O)C(Cc1ccc(OC(COO)COO)cc1)NC(=O)C(Cc1ccc(C(=O)c2ccccc2)cc1)NC(=O)CCc1ccc(O)cc1 (centres unmarked) | 9 | 47 | 89 | – | – | – | – |
| CCCCCNC(=O)C(Cc1ccc(OC(COO)COO)cc1)NC(=O)C(Cc1ccc(OC(C)(C)C)cc1)NC(=O)OC(C)(C)C (centres unmarked) | 5 | 36 | 89 | – | – | – | – |
| CCCCCNC(=O)[C@H](Cc1ccc(OC(C(=O)O)C(=O)O)cc1)NC(=O)c1ccccc1C(=O)O | – | – | – | 2 | 14 | 63 | – |
| O=C(O)CCC(=O)N[C@@H](Cc1ccc(OC(C(=O)O)C(=O)O)cc1)C(=O)NCCC(c1ccccc1)c1ccccc1 | – | – | – | 0 | 3 | 45 | – |
| CCCCCNC(=O)[C@H](Cc1ccc(OC(C(=O)O)C(=O)O)cc1)NC(=O)COCC(=O)O | – | – | – | 3 | 12 | 53 | – |
| O=C(O)COc1ccc(C[C@H](NS(=O)(=O)c2ccc(F)cc2F)C(=O)NCCCCc2ccc(Cl)cc2)cc1C(=O)O [Example 156-1, 2-(carboxymethoxy)-5-((2S)-3-{[4-(4-chlorophenyl)butyl]amino}-2-{[(2,4-difluorophenyl)sulfonyl]amino}-3-oxopropyl)benzoic acid] | – | – | – | – | – | – | inhibition at 1 µM [7]: 18%; inhibition at 10 µM [8]: 69%; inhibition at 100 µM [9]: 95% |
| CCCCCNC(=O)C(Cc1ccc(OC(COO)COO)cc1)NC(=O)Nc1cc(C(=O)O)cc(C(=O)O)c1 (centres unmarked) | – | – | – | 16 | 64 | 94 | – |
| CCCCCNC(=O)[C@H](Cc1ccc(OC(C(=O)O)C(=O)O)cc1)NC(=O)C1CCCCC1C(=O)O (some centres unmarked) | – | – | – | 3 | 13 | 62 | – |
| CCCCCNC(=O)[C@H](Cc1ccc(OC(C(=O)O)C(=O)O)cc1)NC(=O)CCC(N)=O | – | – | – | 0 | 11 | 51 | – |
| CCCCCNC(=O)[C@H](Cc1ccc(OCC(=O)O)c(C(=O)O)c1)NC(=O)[C@H](Cc1ccccc1)NC(=O)Oc1ccccc1 [Example 158, 2-(Carboxymethoxy)-5-[(2S)-3-oxo-3-(pentylamino)-2-({(2S)-2-[(phenoxycarbonyl)amino]-3-phenylpropanoyl}amino)propyl]benzoic Acid] | – | – | – | – | – | – | Ki: 870 nM; inhibition at 1 µM [7]: 43%; inhibition at 10 µM [8]: 85%; inhibition at 100 µM [9]: 97% |

| Compound | inhibition at 1 µM [1] [%] | inhibition at 10 µM [2] [%] | inhibition at 100 µM [3] [%] | inhibition at 1 µM [4] [%] | inhibition at 10 µM [5] [%] | inhibition at 100 µM [6] [%] | further results |
| --- | --- | --- | --- | --- | --- | --- | --- |
| O=C(O)CCC(=O)N[C@@H](Cc1ccc(OC(C(=O)O)C(=O)O)cc1)C(=O)NCCc1ccc(O)cc1 | – | – | – | 1 | 7 | 43 | – |
| O=C(O)COc1ccc(C[C@H](NC(=O)c2ccccc2)C(=O)NCCCCc2ccccc2)cc1C(=O)O [Example 154-8, 5-{(2S)-2-(benzoylamino)-3-oxo-3-[(4-phenylbutyl)amino]propyl}-2-(carboxymethoxy)benzoic acid] | – | – | – | – | – | – | inhibition at 1 µM [7]: 30%; inhibition at 10 µM [8]: 81%; inhibition at 100 µM [9]: 97% |
| O=C(O)CCC(=O)N[C@@H](Cc1ccc(OC(C(=O)O)C(=O)O)cc1)C(=O)NCC1CCCCC1 | – | – | – | 0 | 21 | 73 | – |
| CCCC[C@H](NC(=O)[C@H](Cc1ccc(OC(C(=O)O)C(=O)O)cc1)NC(=O)CCC(=O)O)C(N)=O | – | – | – | 16 | 63 | 93 | – |
| CCCCCNC(=O)[C@H](Cc1ccc(OC(C(=O)O)C(=O)O)cc1)NC(=O)CCc1ccc(CC(C(=O)O)C(=O)O)cc1 | – | – | – | 5 | 29 | 79 | – |
| CCCCCNC(=O)[C@H](Cc1ccc(C=C(C(=O)O)C(=O)O)cc1)NC(=O)CCC(=O)O | – | – | – | 3 | 6 | 33 | – |
| CC(C)CC(CO)NC(=O)C(Cc1ccc(OC(COO)COO)cc1)NC(=O)CCC(=O)O (centres unmarked) | 3 | 15 | 57 | – | – | – | – |
| CCCCCNC(=O)[C@H](Cc1ccc(OC(C(=O)O)C(=O)O)cc1)NC(=O)[C@@H]1CCCC[C@H]1C(=O)O | – | – | – | 1 | 20 | 72 | – |
| CCCCCNC(=O)C(Cc1ccc(OS(=O)(=O)O)cc1)NC(=O)CCC(=O)O (centres unmarked) | – | – | – | 3 | 8 | 80 | – |
| CCCCCNC(=O)C(Cc1ccc(OC(COO)C(=O)O)cc1)NC(=O)NC(Cc1ccccc1)C(=O)O (centres unmarked) | 8 | 57 | 93 | – | – | – | – |
| CCCCCNC(=O)C(Cc1ccc(OC(COO)COO)cc1)NC(=O)C(Cc1ccc(OCc2c(Cl)cccc2Cl)cc1)NC(=O)CCC(=O)O (centres unmarked) | 11 | 70 | 98 | – | – | – | – |
| CCCCCNC(=O)[C@H](Cc1ccc(OC(C(=O)O)C(=O)O)cc1)NC(=O)[C@H](CC(=O)O)NC(=O)CCCCC | – | – | – | 14 | 57 | 91 | – |
| CCCCCNC(=O)C(Cc1ccc(OC(COO)COO)cc1)NC(=O)C(Cc1ccc(C(=O)c2ccccc2)cc1)NC(=O)CCC(=O)O (centres unmarked) [drawing 139] | 4 | 13 | 54 | – | – | – | – |
| CCCCC/C=C/[C@H](Cc1ccc(OC(C(=O)O)C(=O)O)cc1)NC(=O)CCC(=O)O | 1 | 14 | 70 | – | – | – | – |
| CC(C)(C)OC(=O)N[C@@H](Cc1ccccc1)C(=O)N[C@@H](Cc1ccc(OCC(=O)O)c(C(=O)O)c1)C(=O)NOCCCc1ccccc1 [Example 157-28, 5-{(2S)-2-({(2S)-2-[(tert-Butoxycarbonyl)amino]-3-phenylpropanoyl}amino)-3-oxo-3-[(3-phenylpropoxy)amino]propyl}-2-(carboxymethoxy)benzoic Acid] | – | – | – | – | – | – | Ki: 400 nM |
| CCCCCNC(=O)C(Cc1ccc(OC(COO)COO)cc1)NC(=O)Nc1ccc(C(=O)O)cc1 (centres unmarked) | – | – | – | 8 | 34 | 81 | – |
